Like-named read-outs stand apart in the source and are kept apart here.
How the values were obtained:
erbB1 [1] = target: T1, erbB1 (Homo sapiens, UniProt P00533); experiment: Isolated enzyme inhibition (Invitrogen Z′-LYTE kinase assay); format: biochemical; details: 10 μM ATP, duplicate
[2] = Steady state radiolytic reduction by the CO2.− radical with HPLC-MS; format: physicochemical; details: for Effector release/Prodrug loss: 0.95 reducing equivalents; for Detection of MNA (methyl nitroaromatic) / release of effector following 1-electron reduction: HPLC-MS; for % Loss of prodrug / % Release of effector: HPLC-MS at 0.95 reducing equivalents; for release of effector following 1-electron reduction: steady state radiolysis
erbB4 = erbB4 (Homo sapiens, UniProt Q15303); experiment: Isolated enzyme inhibition (Invitrogen Z′-LYTE kinase assay); format: biochemical; details: 10 μM ATP, duplicate
Chain of erbB4 (Q15303 26-1308): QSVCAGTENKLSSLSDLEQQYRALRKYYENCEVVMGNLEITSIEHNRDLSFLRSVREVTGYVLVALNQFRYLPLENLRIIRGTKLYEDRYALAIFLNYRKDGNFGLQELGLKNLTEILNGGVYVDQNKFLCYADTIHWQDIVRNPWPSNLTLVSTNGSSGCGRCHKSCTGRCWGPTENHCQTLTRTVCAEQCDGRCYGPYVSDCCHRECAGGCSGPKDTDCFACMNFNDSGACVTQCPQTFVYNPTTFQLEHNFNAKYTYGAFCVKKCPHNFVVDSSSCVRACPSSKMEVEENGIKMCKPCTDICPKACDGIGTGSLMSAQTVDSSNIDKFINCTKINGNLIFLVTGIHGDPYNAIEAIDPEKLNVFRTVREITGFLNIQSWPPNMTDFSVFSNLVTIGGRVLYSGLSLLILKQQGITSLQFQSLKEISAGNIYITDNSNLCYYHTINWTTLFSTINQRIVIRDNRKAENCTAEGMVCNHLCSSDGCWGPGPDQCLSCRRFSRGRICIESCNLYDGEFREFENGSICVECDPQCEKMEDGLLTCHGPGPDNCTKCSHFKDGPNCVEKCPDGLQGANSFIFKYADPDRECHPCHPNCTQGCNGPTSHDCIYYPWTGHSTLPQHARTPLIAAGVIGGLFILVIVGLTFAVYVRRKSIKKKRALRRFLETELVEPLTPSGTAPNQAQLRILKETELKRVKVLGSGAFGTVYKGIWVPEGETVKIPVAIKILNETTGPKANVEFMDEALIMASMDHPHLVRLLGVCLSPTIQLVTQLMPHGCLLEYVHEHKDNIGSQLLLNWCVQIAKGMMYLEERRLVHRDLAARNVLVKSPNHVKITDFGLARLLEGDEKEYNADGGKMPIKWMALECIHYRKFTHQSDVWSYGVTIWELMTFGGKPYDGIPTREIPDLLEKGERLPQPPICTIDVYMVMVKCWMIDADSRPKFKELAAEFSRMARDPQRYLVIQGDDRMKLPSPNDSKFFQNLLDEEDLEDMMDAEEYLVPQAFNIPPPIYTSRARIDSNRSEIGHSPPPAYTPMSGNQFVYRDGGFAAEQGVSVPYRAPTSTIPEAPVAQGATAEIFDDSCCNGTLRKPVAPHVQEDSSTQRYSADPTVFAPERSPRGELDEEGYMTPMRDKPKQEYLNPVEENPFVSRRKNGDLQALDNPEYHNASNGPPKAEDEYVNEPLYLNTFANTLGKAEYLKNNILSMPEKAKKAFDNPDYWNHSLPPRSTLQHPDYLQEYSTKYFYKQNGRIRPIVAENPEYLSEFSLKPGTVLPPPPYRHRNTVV
Description: (§1) The compounds of Table 1 were tested for their ability to inhibit erbB1, erbB1^T790M, erbB2 and erbB4 in an isolated enzyme assay. This assay utilises synthetic FRET-capable peptide substrates. Phosphorylation of these substrates protects them from cleavage by a development reagent, leaving their FRET-capabilities intact. […] As a further consideration, for compounds capable of irreversible inhibition of an enzyme, the IC50 reflects both reversible and irreversible binding to the enzyme.

erbB2 = erbB2 (Homo sapiens, UniProt P04626); experiment: as above; format: biochemical; details: 10 μM ATP, duplicate
Chain of erbB2 (P04626 23-1255): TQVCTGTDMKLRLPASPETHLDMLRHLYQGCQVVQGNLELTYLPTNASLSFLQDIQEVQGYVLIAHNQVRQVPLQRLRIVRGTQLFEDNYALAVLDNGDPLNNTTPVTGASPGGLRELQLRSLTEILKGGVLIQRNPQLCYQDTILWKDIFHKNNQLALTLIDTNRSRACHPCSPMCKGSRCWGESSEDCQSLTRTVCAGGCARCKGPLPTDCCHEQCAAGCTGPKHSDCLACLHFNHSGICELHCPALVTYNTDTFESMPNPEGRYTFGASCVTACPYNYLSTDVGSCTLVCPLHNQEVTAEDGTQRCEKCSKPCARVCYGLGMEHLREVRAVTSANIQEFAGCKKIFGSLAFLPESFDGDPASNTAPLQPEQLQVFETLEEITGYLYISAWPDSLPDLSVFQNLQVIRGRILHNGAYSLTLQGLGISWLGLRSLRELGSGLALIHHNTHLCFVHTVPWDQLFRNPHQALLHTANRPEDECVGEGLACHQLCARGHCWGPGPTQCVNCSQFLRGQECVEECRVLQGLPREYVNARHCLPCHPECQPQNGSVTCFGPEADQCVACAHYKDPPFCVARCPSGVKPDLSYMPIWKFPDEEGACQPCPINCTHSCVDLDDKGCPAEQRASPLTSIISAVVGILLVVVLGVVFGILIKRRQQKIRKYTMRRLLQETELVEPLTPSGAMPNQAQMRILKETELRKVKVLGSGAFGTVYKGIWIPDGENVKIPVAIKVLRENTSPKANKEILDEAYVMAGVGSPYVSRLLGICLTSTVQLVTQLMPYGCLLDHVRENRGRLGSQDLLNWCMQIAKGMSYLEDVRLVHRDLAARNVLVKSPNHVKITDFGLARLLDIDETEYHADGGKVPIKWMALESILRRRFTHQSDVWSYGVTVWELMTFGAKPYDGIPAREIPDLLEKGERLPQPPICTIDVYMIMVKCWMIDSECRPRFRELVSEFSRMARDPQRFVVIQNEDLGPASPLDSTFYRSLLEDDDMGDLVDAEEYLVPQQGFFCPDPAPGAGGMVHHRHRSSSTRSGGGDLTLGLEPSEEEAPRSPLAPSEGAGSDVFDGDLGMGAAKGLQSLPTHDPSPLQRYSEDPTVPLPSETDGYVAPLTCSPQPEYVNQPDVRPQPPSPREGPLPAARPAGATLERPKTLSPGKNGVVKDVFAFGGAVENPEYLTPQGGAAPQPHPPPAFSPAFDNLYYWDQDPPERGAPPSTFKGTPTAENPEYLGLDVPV
Description: as §1

[3] = Pulse radiolysis (E(1) and fragmentation rate); format: physicochemical; details: for E (1)/V (one-electron reduction potential): determined against methylviologen
A431 xenografts = experiment: In vivo efficacy in A431 xenografts; details: A431 xenografts, q4dx3 at MTD, IP in lactate buffer
Description: Specific pathogen-free homozygous female CD-1 nude mice (Charles River Laboratories, Wilmington, Mass.) were inoculated subcutaneously with a single cell suspension of A431 cells (5×10^6 cells/100 […]; right flank). When A431 tumour xenografts were established (typically 6-10 days) mice were randomized to treatment groups. All compounds were prepared in lactate buffer (pH4). Mice were dosed by intraperitoneal injection (0.01-0.03 ml/g) using the stated schedules and dose levels. Tumour size and body weights were measured at regular intervals. Tumour volume was calculated as π (length×width^2)/6. […] Differences in RTV^4 were tested for statistical difference by Mann Whitney U test using SigmaStat v3.5.

erbB1 [4] = target: T1, erbB1; experiment: Inhibition of erbB1 autophosphorylation in EGF-stimulated intact A431 cells (Western blot); details: for Deact. (fold reduction in cellular erbB1 inhibition relative to the parent kinase inhibitor): A431 cells
SKBR3 cells = experiment: Cellular growth inhibition (sulforhodamine B); format: cell-based, Human; details: Table 3
A431 cells = experiment: Cellular growth inhibition (sulforhodamine B)
Description: Human A431, BT474, SKBR3, SKOV3, SW620, H1975 and HT29 carcinoma cells in log phase exponential growth in alpha minimal essential media (αMEM) containing 5% fetal bovine serum (FBS), were harvested by trypsinisation (1× trypsin/EDTA, Gibco Brl), counted, and seeded into 96 well plates (Nunc) at cell densities ranging from 800-1500 cells/well. Half of the cell samples were seeded into plates that were pre-equilibrated and held in an anoxic environment (90% N2, 5% H2, 5% CO2, 37° Q Anaerobic chamber, Coy Laboratory Products). […] At the end of this period the anoxic plates were recovered from the anaerobic camber and held under normoxia in a standard CO2 incubator (37° C.) for 20 hours. All plates were washed free of compound and cells were allowed to proliferate for a further 4 days in αMEM containing 5% FBS+antibiotics. Cells were fixed in trichloroacteic acid (30 min), washed and stained with sulforhodamine B (SRB, 60 min) prior to washing in acidified water. SRB was solubilised and absorption read at 450 nm to calculate cell densities. Inhibition of proliferation was calculated relative to untreated control wells.
Human A431, H1975 and SKOV3 carcinoma cells in log phase exponential growth in alpha minimal essential media (αMEM) containing 5% fetal bovine serum (FBS), were harvested by trypsinisation (1× trypsin/EDTA, Gibco Brl), counted, and seeded into 96 well plates (Nunc) at cell densities ranging from 800-1500 cells/well. Half of the cell samples were seeded into plates that were pre-equilibrated and held in an anoxic environment (90% N2, 5% H2, 5% CO2, 37° C.; Anaerobic chamber, Coy Laboratory Products). […] At the end of this period the anoxic plates were recovered from the anaerobic camber and held under normoxia in a standard CO2 incubator (37° C.) for 20 hours. All plates were washed free of compound and cells were allowed to proliferate for a further 4 days in αMEM containing 5% FBS+antibiotics. Cells were fixed in trichloroacteic acid (30 min), washed and stained with sulforhodamine B (SRB, 60 min) prior to washing in acidified water. SRB was solubilised and absorption read at 450 nm to calculate cell densities. Inhibition of proliferation was calculated relative to untreated control wells.

erbB1^T790M = erbB1^T790M (Homo sapiens, UniProt P00533, T790M); experiment: Isolated enzyme inhibition (Invitrogen Z′-LYTE kinase assay); format: biochemical; details: 10 μM ATP, duplicate
Chain of erbB1^T790M (P00533 25-1210 T790M): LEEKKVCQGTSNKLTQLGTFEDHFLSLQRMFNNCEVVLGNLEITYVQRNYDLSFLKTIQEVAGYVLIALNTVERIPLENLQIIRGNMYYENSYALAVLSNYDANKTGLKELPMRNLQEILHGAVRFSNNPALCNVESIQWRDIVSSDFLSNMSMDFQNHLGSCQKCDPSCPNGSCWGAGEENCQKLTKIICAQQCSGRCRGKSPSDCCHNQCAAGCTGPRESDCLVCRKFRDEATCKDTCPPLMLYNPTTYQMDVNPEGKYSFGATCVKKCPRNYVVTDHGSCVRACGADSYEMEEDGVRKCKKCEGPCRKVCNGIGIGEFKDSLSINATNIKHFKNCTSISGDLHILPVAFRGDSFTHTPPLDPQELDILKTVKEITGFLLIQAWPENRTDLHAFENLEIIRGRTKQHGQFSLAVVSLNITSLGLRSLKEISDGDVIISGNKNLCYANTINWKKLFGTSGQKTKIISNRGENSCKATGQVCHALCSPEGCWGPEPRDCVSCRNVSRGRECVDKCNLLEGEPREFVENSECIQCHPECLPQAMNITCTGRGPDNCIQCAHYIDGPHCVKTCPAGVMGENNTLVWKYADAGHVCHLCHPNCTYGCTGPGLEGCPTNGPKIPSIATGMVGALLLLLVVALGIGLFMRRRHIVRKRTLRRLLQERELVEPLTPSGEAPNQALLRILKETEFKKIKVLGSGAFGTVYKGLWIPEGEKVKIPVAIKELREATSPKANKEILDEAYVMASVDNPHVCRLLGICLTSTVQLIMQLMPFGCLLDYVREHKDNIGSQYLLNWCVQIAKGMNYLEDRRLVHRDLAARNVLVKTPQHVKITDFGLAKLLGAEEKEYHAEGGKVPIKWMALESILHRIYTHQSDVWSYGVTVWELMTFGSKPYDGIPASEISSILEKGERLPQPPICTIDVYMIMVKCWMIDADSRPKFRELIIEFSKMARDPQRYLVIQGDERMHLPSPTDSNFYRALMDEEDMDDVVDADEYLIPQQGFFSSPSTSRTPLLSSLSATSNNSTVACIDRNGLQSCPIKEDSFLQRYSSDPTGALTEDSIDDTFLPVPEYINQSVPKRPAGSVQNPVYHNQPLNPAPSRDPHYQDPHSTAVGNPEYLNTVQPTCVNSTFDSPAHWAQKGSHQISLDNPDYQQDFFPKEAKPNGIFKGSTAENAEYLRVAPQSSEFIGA

SW620 cells = experiment: Cellular growth inhibition (sulforhodamine B); format: cell-based, Human; details: Table 3
erbB1 [5] = target: T1, erbB1; experiment: Cellular erbB1 inhibition under oxic and hypoxic conditions in A431 cells; format: cell-based; details: 1 μM, 4 hour exposure oxic or hypoxic, washed, EGF stimulated
Description: Human A431 epidermoid carcinoma cells were seeded at 400,000 cells/well in a 6 well plate in alpha minimal essential media (αMEM) containing 10% fetal bovine serum, 10 mM D-Glucose and 0.2 mM 2′-deoxycytidine. A431 cells were allowed to attach for 90 minutes under oxic or anoxic conditions, then exposed to test compounds at a concentration of 1 uM for a further 4 hours under oxic or anoxic conditions. The cells were then washed free of test compounds three times using serum free media and then returned to the incubator under oxic conditions overnight. The cells were then stimulated with 100 ng/mL EGF for 15 minutes before the medium was aspirated and the cells were washed with ice-cold PBS.

[6] = Homo sapiens, SK-BR-3, 24 hour exposure entirely oxic, read-out: Cellular Growth Inhibition IC50 SKBR3 Oxic
[7] = Homo sapiens, SK-BR-3, first 4 hours anoxic, read-out: Cellular Growth Inhibition IC50 SKBR3 Anoxic
[8] = Homo sapiens, A-431, 24 h, read-out: Cellular Growth Inhibition IC50 A431 Oxic
[9] = Homo sapiens, A-431, read-out: Cellular Growth Inhibition IC50 A431 Anoxic
[10] = Homo sapiens, SW-620, 24 hour exposure entirely oxic, read-out: Cellular Growth Inhibition IC50 SW620 Oxic
[11] = Homo sapiens, SW-620, first 4 hours anoxic, read-out: Cellular Growth Inhibition IC50 SW620 Anoxic

T1 sequence (P00533 25-1210): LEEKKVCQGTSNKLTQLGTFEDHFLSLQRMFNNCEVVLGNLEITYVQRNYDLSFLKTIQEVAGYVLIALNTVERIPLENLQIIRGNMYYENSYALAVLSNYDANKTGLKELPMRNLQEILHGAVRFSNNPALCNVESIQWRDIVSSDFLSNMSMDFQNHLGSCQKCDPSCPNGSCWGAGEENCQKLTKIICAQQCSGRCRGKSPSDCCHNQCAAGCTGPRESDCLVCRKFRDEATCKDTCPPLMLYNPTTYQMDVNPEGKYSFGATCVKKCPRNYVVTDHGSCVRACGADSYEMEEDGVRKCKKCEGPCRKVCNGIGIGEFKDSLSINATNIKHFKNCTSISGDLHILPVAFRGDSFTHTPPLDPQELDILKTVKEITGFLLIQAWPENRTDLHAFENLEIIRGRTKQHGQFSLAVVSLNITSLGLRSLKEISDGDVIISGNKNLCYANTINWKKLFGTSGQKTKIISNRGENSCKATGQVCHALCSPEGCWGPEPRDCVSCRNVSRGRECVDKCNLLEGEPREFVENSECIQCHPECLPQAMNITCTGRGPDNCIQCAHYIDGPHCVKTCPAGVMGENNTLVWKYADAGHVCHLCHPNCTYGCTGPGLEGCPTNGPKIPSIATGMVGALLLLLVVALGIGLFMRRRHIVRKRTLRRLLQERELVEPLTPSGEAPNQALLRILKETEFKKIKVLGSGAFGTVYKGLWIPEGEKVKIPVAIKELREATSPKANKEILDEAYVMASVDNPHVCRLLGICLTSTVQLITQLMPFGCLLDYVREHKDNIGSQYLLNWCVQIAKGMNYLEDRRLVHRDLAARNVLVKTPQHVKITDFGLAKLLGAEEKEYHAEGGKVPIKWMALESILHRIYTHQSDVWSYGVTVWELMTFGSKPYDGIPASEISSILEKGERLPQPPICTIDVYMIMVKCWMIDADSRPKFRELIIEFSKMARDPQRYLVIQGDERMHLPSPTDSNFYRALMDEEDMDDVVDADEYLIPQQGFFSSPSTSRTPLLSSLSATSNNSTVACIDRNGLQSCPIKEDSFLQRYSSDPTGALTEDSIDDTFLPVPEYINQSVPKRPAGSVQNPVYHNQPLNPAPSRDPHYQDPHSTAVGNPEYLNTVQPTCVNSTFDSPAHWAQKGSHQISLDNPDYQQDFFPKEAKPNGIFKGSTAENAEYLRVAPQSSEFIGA

| SMILES | IC50 (erbB1 [1]) [µM] | Effector release/Prodrug loss [2] | Detection of MNA (methyl nitroaromatic) [2] | % Loss of prodrug [2] [%] | % Release of effector [2] [%] | release of effector following 1-electron reduction [2] | IC50 (erbB4) [µM] | IC50 (erbB2) [µM] | E (1)/V (one-electron reduction potential) [3] [V] | SKBR3 Deact. (SKBR3 cells) [fold] | IC50 (erbB1^T790M) [µM] | SW620 Deact. (SW620 cells) [fold] | SW620 HCR (SW620 cells) [fold] | IC50 (erbB1 [4]) [µM] | Deact. (fold reduction in cellular erbB1 inhibition relative to the parent kinase inhibitor) (erbB1 [4]; Table 2) [fold] | IC50 (SKBR3 cells; [6]) [µM] | IC50 (SKBR3 cells; [7]) [µM] | SKBR3 HCR (SKBR3 cells) [fold] | IC50 (A431 cells; [8]) [µM] | IC50 (A431 cells; [9]) [µM] | further results |
| --- | --- | --- | --- | --- | --- | --- | --- | --- | --- | --- | --- | --- | --- | --- | --- | --- | --- | --- | --- | --- | --- |
| Cn1c(C[N+](C)(C)C/C=C/C(=O)Nc2ccc3ncnc(Nc4cccc(Br)c4)c3c2)ccc1[N+](=O)[O-].[Br-] [Compound 19, (2E)-4-{[4-(3-bromoanilino)-6-quinazolinyl]amino}-N,N-dimethyl-N-[(1-methyl-5-nitro-1H-pyrrol-2-yl)methyl]-4-oxo-2-buten-1-ammonium bromide] | 0.0004 | 0.73 | No | 63 | 46 | released effector (compound 11) detected | 0.061 | 0.113 | −0.493 | 78 | 0.451 | 46 | 5.6 |  |  |  |  |  |  |  | kfrag. (fragmentation rate constant upon 1-electron reduction) ([3]; benzyl-type radical formation): 90 ± 10 s⁻¹; tumour growth inhibition (TGI) (A431 xenografts): 120%; IC50 (erbB1 [4]; read-out: Cellular Enzyme Inhibition IC50 erbB1, Table 2, intact A431 cells, EGF-stimulated, average of two determinations): 0.962 µM; IC50 (SKBR3 cells; 24 hour exposure entirely oxic, read-out: Cellular Growth Inhibition IC50 SKBR3 Oxic): 6.33 µM; IC50 (SKBR3 cells; first 4 hours anoxic, read-out: Cellular Growth Inhibition IC50 SKBR3 Anoxic): 0.483 µM; IC50 (A431 cells; read-out: Cellular Growth Inhibition IC50 A431 Anoxic, Table 3, first 4 hours of 24 hour exposure anoxic): 0.201 µM; IC50 (A431 cells; read-out: Cellular Growth Inhibition IC50 A431 Oxic, Table 3, 24 hour exposure entirely oxic): 2.64 µM; IC50 (SW620 cells; 24 hour exposure entirely oxic, read-out: Cellular Growth Inhibition IC50 SW620 Oxic): 156 µM; IC50 (SW620 cells; first 4 hours anoxic, read-out: Cellular Growth Inhibition IC50 SW620 Anoxic): 28 µM |
| Cn1cc([N+](=O)[O-])nc1C[N+](C)(C)C/C=C/C(=O)Nc1ccc2ncnc(Nc3cccc(Br)c3)c2c1 [Compound 21, (2E)-4-{[4-(3-bromoanilino)-6-quinazolinyl]amino}-N,N-dimethyl-N-[(1-methyl-4-nitro-1H-imidazol-2-yl)methyl]-4-oxo-2-buten-1-ammonium bromide] | 0.00053 | 0.30 | No | 33 | 10 | not observed | 0.076 | 0.128 | −0.468 | 332 | 0.531 | 123 | 1.2 | 1.19 | 130 | 26.9 | 30 | 0.9 | 11 | 13.7 | tumour growth inhibition (TGI) (A431 xenografts): 10%; A431 Deact. (fold reduction in oxic growth inhibition relative to parent kinase inhibitor) (A431 cells; Table 3): 277 fold; A431 HCR (Hypoxic Cytotoxicity Ratio) (A431 cells; Table 3): 1.3 fold; IC50 (SW620 cells; [10]): 423 µM; IC50 (SW620 cells; [11]): 365 µM; hypoxia-selective inhibition of p-erbB1 (erbB1 [5]): no apparent hypoxia-selective inhibition |
| Cn1ncc([N+](=O)[O-])c1C[N+](C)(C)C/C=C/C(=O)Nc1ccc2ncnc(Nc3cccc(Br)c3)c2c1 [Compound 22, (2E)-4-{[4-(3-bromoanilino)-6-quinazolinyl]amino}-N,N-dimethyl-N-[(1-methyl-4-nitro-1H-pyrazol-5-yl)methyl]-4-oxo-2-buten-1-ammonium bromide] | 0.00046 | 0.49 | No | 35 | 17 | did not release their respective effector compounds |  | 0.135 | −0.449 | 136 |  | 82 | 2.3 | 1.39 | 151 | 11 | 1.64 | 6.7 | 5.86 | 0.564 | A431 Deact. (fold reduction in oxic growth inhibition relative to parent kinase inhibitor) (A431 cells; Table 3): 147 fold; A431 HCR (Hypoxic Cytotoxicity Ratio) (A431 cells; Table 3): 10.4 fold; IC50 (SW620 cells; [10]): 281 µM; IC50 (SW620 cells; [11]): 123 µM; hypoxia-selective inhibition of p-erbB1 (erbB1 [5]): no apparent hypoxia-selective inhibition |
| Cn1cnc([N+](=O)[O-])c1C[N+](C)(C)CCCC(=O)Nc1ccc2ncnc(Nc3cccc(Br)c3)c2c1 [Compound 27, 4-{([4-(3-bromoanilino)-6-quinazolinyl]amino}-N,N-dimethyl-N-[(1-methyl-4-nitro-1H-imidazol-5-yl)methyl]-4-oxo-1-butanaminium bromide] | 0.00064 |  |  |  |  |  | 0.174 | 0.191 |  | 159 | 0.798 | 37 | 1.2 | 3.6 | 201 | 507 | 74.3 | 7.6 | 255 | 76.1 | A431 Deact. (fold reduction in oxic growth inhibition relative to parent kinase inhibitor) (A431 cells; Table 3): 203 fold; A431 HCR (Hypoxic Cytotoxicity Ratio) (A431 cells; Table 3): 3.4 fold; IC50 (SW620 cells; [10]): 684 µM; IC50 (SW620 cells; [11]): 585 µM |
